From patent publication US12624395B2, “Process for identifying a stress state and/or for assessing the stress response level in a subject” (ADISSEO FRANCE S.A.S., priority 2019, dated 2026)

How the values were obtained:
[1] = assay type: in vivo, chicken; conditions: paraquat-treated chickens, 110 μg/mL in water supply D7 to D14
From the text: (§1) All experimental procedures used in the current study were approved by the Ethics and Research Committee of the institution conducting the study. A total of 144 one-day-old Ross 308 male broiler chicks, with an average body weight (BW) of 39 g, were reared from D1 to D21. They were allocated in 72 battery cages (0.5×0.42 m^2) with wire floors (6 chicks/cage) in environmentally controlled rooms. The birds were randomly assigned to treatment pens with similar starting weights. Each cage was equipped with one trough feeder and one drinker. Birds had ad libitum access to mash feeds and water during all study. Average temperature was 33° C. at placement, being reduced by 1° C. every 2 days until 23° C. to provide comfort throughout the study. The lighting program was 18 hours light and 6 hours dark during each 24 hours period throughout the trial.
The experimental design was a completely randomized factorial design, consisting of a placebo or oxidative stress groups thus two experimental treatments, and 12 replicates per treatment with 6 birds for each replicate. The oxidative stress was applied only from D7 to D14, through the supplementation of a xenobiotic, i.e. paraquat dichloride hydrate (Sigma-Aldrich Company Ltd., Dorset, UK), through the water supply system at the dose of 110 μg/mL. […] Body weight (BW) was recorded on D1, D7, D14 and D21. […]

[2] = test system: Ross 308 male broiler chicks; test: Stress, non-adaptation and adaptation scores from gene signatures (RT-qPCR) in the chicken-paraquat model; assay type: in vivo
From the text: as §1
The experimental design was a completely randomized factorial design, consisting of a placebo or oxidative stress groups thus two experimental treatments, and 12 replicates per treatment with 6 birds for each replicate. The oxidative stress was applied only from D7 to D14, through the supplementation of a xenobiotic, i.e. paraquat dichloride hydrate (Sigma-Aldrich Company Ltd., Dorset, UK), through the water supply system at the dose of 110 μg/mL. This dosage was achieved by using water containers, individually located in each cage. The control group received standard water (placebo) on the same period using similar containers. A starter and grower diets were provided from D1 to D7, and D8 to D21, respectively. The basal diets were standard wheat/corn-soy-based broiler diets, and were formulated to meet or exceed the nutrient requirements of broilers, as recommended by the NRC (1994). Body weight (BW) was recorded on D1, D7, D14 and D21. On D14 and D21, one bird per pen replicate of each treatment was sacrificed for tissue collection. Briefly, 100 mg of tissue (breast, liver and ileum) were immerged in 2-mL Eppendorf tubes containing 1 mL RNAlater® (Sigma-Aldrich), and kept at −20° C. until analysis. RNA extraction and purification was conducted as described in Example 1.
To remove traces of contaminant genomic DNA, 2.5 μg of total RNA was treated with 2.5 U of DNasel (ThermoFischer) in a final volume of […] for 15 min at 25° C. Next, DNase was inhibited by addition of EDTA to a final concentration of 8 mM and incubated for 10 min at 70° C. Half of the DNase-treated RNA sample was reverse transcribed (RT), the other half was kept as no-RT control. RNA was denatured in a total volume of 17.6 μL containing 1.25 μg total RNA, 5 mM of nonanucleotide random primer (dN9) and 0.5 μM each dNTPs (Thermofischer). This mix was heated to 70° C. for 5 min in a thermocycler (SimpliAmp™, Life Technologies). Then, RT-AMV buffer (Life Sciences Advance Technology) was added together with 40 U RNAsine (Promega) and 0.25 U AMV Reverse Transcriptase (RT) (Life Sciences Advance Technology), and the volume was adjusted to 21.6 μL. Primers were hybridized by incubation at 25° C. for 15 min, and extension was conducted for 2 hours at 45° C. in thermocycler. No-RT controls were treated in parallel, but addition of AMV-RT enzyme was omitted.
For the quantitative PCR reaction, 1 μL of cDNA sample diluted to ⅓ was mixed to 2 μL specific primers mix 2.5 mM each and 5 μL of 2× Takyon sybrgreen—No ROX (Eurogentec) in a final volume of 10 μL. Each PCR reaction was set in triplicate. Amplification was conducted on a LC480 LightCycler® Nano (Roche) using 384 well plates and the following program: 1 initial activation cycle at 95° C. for 3 min, then 45 cycles [95° C. for 10 sec; 60° C. for 15 sec; 72° C. for 15 sec]. Specificity of each amplification was monitored by fusion curve technic detecting a single peak corresponding to one single amplicon, consisting in an initial denaturation at 95° C. for 5 sec, followed by ramping from 55 to 95° C. at 0.11° C./sec, and 5 acquisitions per sec. […]

[3] = 4 most conserved genes signature
[4] = twenty-six genes or four most conserved genes signature, FIG. 5, bottom

## C[n+]1ccc(-c2cc[n+](C)cc2)cc1 [paraquat, paraquat dichloride hydrate]
[1]
  body weight change: weight-loss
[2]; 4-gene signatures, mean ± SD
  Adaptation Score (%): 0.0 ± 0.0%
  Non-adaptation Score (%): 78.2 ± 29.5%
  Stress Score (%): 69.2 ± 21.6%
[2]; [3]
  Adaptation Score (%): 0%
  Non-adaptation Score (%): 100%
[2]; 4 most conserved genes signature (Anxa1, Anxa2, Chac1, Postn)
  Stress Score (%): 75%
[2]; 5-gene signatures, mean ± SD
  Adaptation Score (%): 0.0 ± 0.0%
  Non-adaptation Score (%): 79.4 ± 24.8%
  Stress Score (%): 69.2 ± 18.9%
[2]; 6-gene signatures, mean ± SD
  Adaptation Score (%): 0.0 ± 0.0%
  Non-adaptation Score (%): 79.8 ± 21.5%
  Stress Score (%): 69.2 ± 16.8%
[2]; 7-gene signatures, mean ± SD
  Adaptation Score (%): 0.0 ± 0.0%
  Non-adaptation Score (%): 79.9 ± 19.0%
  Stress Score (%): 69.2 ± 15.2%
[2]; 8-gene signatures, mean ± SD
  Adaptation Score (%): 0.0 ± 0.0%
  Non-adaptation Score (%): 80.0 ± 17.0%
  Stress Score (%): 69.2 ± 13.8%
[2]; 9-gene signatures, mean ± SD
  Adaptation Score (%): 0.0 ± 0.0%
  Non-adaptation Score (%): 80.0 ± 15.4%
  Stress Score (%): 69.2 ± 12.7%
[2]; 10-gene signatures, mean ± SD
  Adaptation Score (%): 0.0 ± 0.0%
  Non-adaptation Score (%): 80.0 ± 14.1%
  Stress Score (%): 69.2 ± 11.7%
[2]; 11-gene signatures, mean ± SD
  Adaptation Score (%): 0.0 ± 0.0%
  Non-adaptation Score (%): 80.0 ± 13.0%
  Stress Score (%): 69.2 ± 10.8%
[2]; 12-gene signatures, mean ± SD
  Adaptation Score (%): 0.0 ± 0.0%
  Non-adaptation Score (%): 80.0 ± 12.0%
  Stress Score (%): 69.2 ± 10.0%
[2]; 13-gene signatures, mean ± SD
  Adaptation Score (%): 0.0 ± 0.0%
  Non-adaptation Score (%): 80.0 ± 11.0%
  Stress Score (%): 69.2 ± 9.2%
[2]; 14-gene signatures, mean ± SD
  Adaptation Score (%): 0.0 ± 0.0%
  Non-adaptation Score (%): 80.0 ± 10.2%
  Stress Score (%): 69.2 ± 8.5%
[2]; 15-gene signatures, mean ± SD
  Adaptation Score (%): 0.0 ± 0.0%
  Non-adaptation Score (%): 80.0 ± 9.4%
  Stress Score (%): 69.2 ± 7.9%
[2]; 16-gene signatures, mean ± SD
  Adaptation Score (%): 0.0 ± 0.0%
  Non-adaptation Score (%): 80.0 ± 8.7%
  Stress Score (%): 69.2 ± 7.3%
[2]; 17-gene signatures, mean ± SD
  Adaptation Score (%): 0.0 ± 0.0%
  Non-adaptation Score (%): 80.0 ± 7.9%
  Stress Score (%): 69.2 ± 6.7%
[2]; 18-gene signatures, mean ± SD
  Adaptation Score (%): 0.0 ± 0.0%
  Non-adaptation Score (%): 80.0 ± 7.3%
  Stress Score (%): 69.2 ± 6.2%
[2]; 19-gene signatures, mean ± SD
  Adaptation Score (%): 0.0 ± 0.0%
  Non-adaptation Score (%): 80.0 ± 6.6%
  Stress Score (%): 69.2 ± 5.6%
[2]; 20-gene signatures, mean ± SD
  Adaptation Score (%): 0.0 ± 0.0%
  Non-adaptation Score (%): 80.0 ± 6.0%
  Stress Score (%): 69.2 ± 5.0%
[2]; 21-gene signatures, mean ± SD
  Adaptation Score (%): 0.0 ± 0.0%
  Non-adaptation Score (%): 80.0 ± 5.3%
  Stress Score (%): 69.2 ± 4.5%
[2]; 22-gene signatures, mean ± SD
  Adaptation Score (%): 0.0 ± 0.0%
  Non-adaptation Score (%): 80.0 ± 4.6%
  Stress Score (%): 69.2 ± 3.9%
[2]; 23-gene signatures, mean ± SD
  Adaptation Score (%): 0.0 ± 0.0%
  Non-adaptation Score (%): 80.0 ± 3.9%
  Stress Score (%): 69.2 ± 3.3%
[2]; 24-gene signatures, mean ± SD
  Adaptation Score (%): 0.0 ± 0.0%
  Non-adaptation Score (%): 80.0 ± 3.1%
  Stress Score (%): 69.2 ± 2.7%
[2]; 25-gene signatures, mean ± SD
  Adaptation Score (%): 0.0 ± 0.0%
  Non-adaptation Score (%): 80.0 ± 2.2%
  Stress Score (%): 69.2 ± 1.8%
[2]; 26-gene signature, mean ± SD
  Adaptation Score (%): 0.0 ± 0.0%
  Non-adaptation Score (%): 80.0 ± 0.0%
  Stress Score (%): 69.2 ± 0.0%
[2]; [4]
  non-adaptation (NA) score: high
  stress (S) score: high
